Test results from PubChem BioAssay (NCI).
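Growth conditions: 96-well plates. Treatment: test compound, 48 hours, 5 concentrations. Analysis: linear interpolation between bracketing concentrations; unreached endpoints set to highest concentration. TGI: concentration producing complete growth inhibition.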

Key:
Experiment in all cases: NCI anticancer screen, dose series, 48 h
SK-MEL-28 melanoma = test system: SK-MEL-28 melanoma
EKVX NSCLC = test system: EKVX NSCLC
HL-60(TB) leukemia = test system: HL-60(TB) leukemia
NCI/ADR-RES ovarian = test system: NCI/ADR-RES ovarian
SF-268 CNS = test system: SF-268 CNS
M14 melanoma = test system: M14 melanoma
HOP-92 NSCLC = test system: HOP-92 NSCLC
NCI-H23 lung = test system: NCI-H23 lung
SW-620 colon = test system: SW-620 colon
NCI-H522 lung = test system: NCI-H522 lung
HT29 colon = test system: HT29 colon
A498 renal = test system: A498 renal
UACC-257 melanoma = test system: UACC-257 melanoma
IGROV1 ovarian = test system: IGROV1 ovarian
SK-MEL-5 melanoma = test system: SK-MEL-5 melanoma
NCI-H226 lung = test system: NCI-H226 lung
DU-145 prostate = test system: DU-145 prostate
OVCAR-8 ovarian = test system: OVCAR-8 ovarian
A549 NSCLC = test system: A549 NSCLC
OVCAR-5 ovarian = test system: OVCAR-5 ovarian
U251 CNS = test system: U251 CNS
ACHN renal = test system: ACHN renal
UO-31 renal = test system: UO-31 renal
MOLT-4 leukemia = test system: MOLT-4 leukemia
NCI-H460 lung = test system: NCI-H460 lung
HCT-15 colon = test system: HCT-15 colon
BT-549 breast = test system: BT-549 breast
OVCAR-4 ovarian = test system: OVCAR-4 ovarian
MDA-MB-231 breast = test system: MDA-MB-231 breast
SN12C renal = test system: SN12C renal
T-47D breast = test system: T-47D breast
HS 578T breast = test system: HS 578T breast
HCC-2998 colon = test system: HCC-2998 colon
CAKI-1 renal = test system: CAKI-1 renal
PC-3 prostate = test system: PC-3 prostate
MDA-N = test system: MDA-N
SK-MEL-2 melanoma = test system: SK-MEL-2 melanoma
TK-10 renal = test system: TK-10 renal
MALME-3M melanoma = test system: MALME-3M melanoma
MDA-MB-435 = test system: MDA-MB-435
K-562 leukemia = test system: K-562 leukemia
OVCAR-3 ovarian = test system: OVCAR-3 ovarian
RPMI-8226 leukemia = test system: RPMI-8226 leukemia
HOP-62 NSCLC = test system: HOP-62 NSCLC
COLO 205 colon = test system: COLO 205 colon
SNB-19 CNS = test system: SNB-19 CNS
SNB-75 CNS = test system: SNB-75 CNS
SR leukemia = test system: SR leukemia
LOX IMVI melanoma = test system: LOX IMVI melanoma
SF-295 CNS = test system: SF-295 CNS
CCRF-CEM leukemia = test system: CCRF-CEM leukemia
786-0 renal = test system: 786-0 renal
UACC-62 melanoma = test system: UACC-62 melanoma
HCT-116 colon = test system: HCT-116 colon
SK-OV-3 ovarian = test system: SK-OV-3 ovarian
KM12 colon = test system: KM12 colon
RXF 393 renal = test system: RXF 393 renal

Measured: TGI

COC(=O)/C=C\n1ncc(=O)[nH]c1=O
> 100 µM: SK-MEL-28 melanoma | EKVX NSCLC | HL-60(TB) leukemia | NCI/ADR-RES ovarian | SF-268 CNS | M14 melanoma | HOP-92 NSCLC | NCI-H23 lung | SW-620 colon | NCI-H522 lung | HT29 colon | A498 renal | UACC-257 melanoma | IGROV1 ovarian | SK-MEL-5 melanoma | NCI-H226 lung | DU-145 prostate | OVCAR-8 ovarian | A549 NSCLC | OVCAR-5 ovarian | U251 CNS | ACHN renal | UO-31 renal | MOLT-4 leukemia | NCI-H460 lung | HCT-15 colon | BT-549 breast | OVCAR-4 ovarian | MDA-MB-231 breast | SN12C renal | T-47D breast | HS 578T breast | HCC-2998 colon | CAKI-1 renal | PC-3 prostate | MDA-N | SK-MEL-2 melanoma | TK-10 renal | MALME-3M melanoma | MDA-MB-435 | K-562 leukemia | OVCAR-3 ovarian | RPMI-8226 leukemia | HOP-62 NSCLC | COLO 205 colon | SNB-19 CNS | SNB-75 CNS

O=[N+]([O-])c1ccc(N=Nc2c(O)ccc3cc(S(=O)(=O)O)cc(S(=O)(=O)O)c23)cc1
> 100 µM: SR leukemia | SK-MEL-28 melanoma | LOX IMVI melanoma | SF-295 CNS | CCRF-CEM leukemia | EKVX NSCLC | 786-0 renal | NCI/ADR-RES ovarian | SF-268 CNS | M14 melanoma | HOP-92 NSCLC | NCI-H23 lung | SW-620 colon | UACC-62 melanoma | NCI-H522 lung | HT29 colon | A498 renal | HCT-116 colon | UACC-257 melanoma | IGROV1 ovarian | SK-MEL-5 melanoma | NCI-H226 lung | DU-145 prostate | OVCAR-8 ovarian | A549 NSCLC | OVCAR-5 ovarian | U251 CNS | ACHN renal | UO-31 renal | MOLT-4 leukemia | SK-OV-3 ovarian | KM12 colon | HCT-15 colon | BT-549 breast | OVCAR-4 ovarian | MDA-MB-231 breast | SN12C renal | T-47D breast | HS 578T breast | CAKI-1 renal | PC-3 prostate | MDA-N | SK-MEL-2 melanoma | TK-10 renal | MALME-3M melanoma | MDA-MB-435 | RXF 393 renal | K-562 leukemia | OVCAR-3 ovarian | RPMI-8226 leukemia | HOP-62 NSCLC | COLO 205 colon | SNB-19 CNS | SNB-75 CNS

Cc1ccccc1N=Nc1cc(C)c(N=Nc2c(O)ccc3ccccc23)cc1C
> 100 µM: SK-MEL-28 melanoma | LOX IMVI melanoma | SF-295 CNS | CCRF-CEM leukemia | EKVX NSCLC | 786-0 renal | NCI/ADR-RES ovarian | SF-268 CNS | M14 melanoma | HOP-92 NSCLC | NCI-H23 lung | SW-620 colon | UACC-62 melanoma | NCI-H522 lung | HT29 colon | A498 renal | HCT-116 colon | UACC-257 melanoma | IGROV1 ovarian | SK-MEL-5 melanoma | NCI-H226 lung | DU-145 prostate | OVCAR-8 ovarian | A549 NSCLC | OVCAR-5 ovarian | U251 CNS | ACHN renal | UO-31 renal | MOLT-4 leukemia | SK-OV-3 ovarian | KM12 colon | HCT-15 colon | BT-549 breast | OVCAR-4 ovarian | MDA-MB-231 breast | SN12C renal | T-47D breast | HS 578T breast | CAKI-1 renal | PC-3 prostate | MDA-N | SK-MEL-2 melanoma | TK-10 renal | MALME-3M melanoma | MDA-MB-435 | RXF 393 renal | K-562 leukemia | OVCAR-3 ovarian | RPMI-8226 leukemia | HOP-62 NSCLC | COLO 205 colon | SNB-19 CNS | SNB-75 CNS
